From patent publication US8143290B2, “Chemical compounds 572” (AstraZeneca AB, priority 2006, dated 2012)

The molecules below were run against T1, recombinant human GR (Homo sapiens, UniProt P04150) (assay: Human Glucocorticoid Receptor (GR) Assay, fluorescence polarization). Conditions: GS Red tracer, incubated 2 h at r.t., XLfit model 205, read-out: GRhuFL_FP_v2 Mean IC50.
T1 construct: purchased Panvera/Invitrogen P2812 (kit P2893)
T1 sequence (P04150 1-777): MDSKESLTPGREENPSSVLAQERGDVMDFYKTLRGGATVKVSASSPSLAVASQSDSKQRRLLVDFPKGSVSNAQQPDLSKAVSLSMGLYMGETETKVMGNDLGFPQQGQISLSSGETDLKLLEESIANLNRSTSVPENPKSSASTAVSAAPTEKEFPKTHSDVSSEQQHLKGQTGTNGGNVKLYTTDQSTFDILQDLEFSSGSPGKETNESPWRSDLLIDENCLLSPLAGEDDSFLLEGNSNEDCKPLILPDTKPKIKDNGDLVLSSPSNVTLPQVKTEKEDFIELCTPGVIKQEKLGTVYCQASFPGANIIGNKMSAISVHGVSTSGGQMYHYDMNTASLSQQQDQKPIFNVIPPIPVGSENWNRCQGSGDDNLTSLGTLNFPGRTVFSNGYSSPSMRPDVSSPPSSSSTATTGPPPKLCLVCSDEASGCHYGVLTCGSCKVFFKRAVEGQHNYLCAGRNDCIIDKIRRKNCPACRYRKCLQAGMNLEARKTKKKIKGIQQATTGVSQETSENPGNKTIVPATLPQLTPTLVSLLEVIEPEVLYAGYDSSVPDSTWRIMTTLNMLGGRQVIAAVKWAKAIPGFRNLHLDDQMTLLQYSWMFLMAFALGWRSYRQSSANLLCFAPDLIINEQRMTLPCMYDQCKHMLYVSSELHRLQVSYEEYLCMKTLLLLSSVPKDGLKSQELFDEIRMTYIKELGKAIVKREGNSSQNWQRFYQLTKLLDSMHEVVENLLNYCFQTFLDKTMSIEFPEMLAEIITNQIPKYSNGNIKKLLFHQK
Type: binding
Description: Human Glucocorticoid Receptor (GR) Assay
The assay is based on a commercial kit from Panvera/Invitrogen (Part number P2893). The assay technology is fluorescence polarization. […] The GR and Stabilizing Peptide reagents are stored at −70° C. while the GS Red is stored at −20° C. Also included in the kit are 1M DTT (Panvera, Part number P2325, stored at −20° C.) and GR Screening buffer 10× (Panvera, Part number P2814, stored at −70° C. initially but once thawed stored at r.t.). Avoid repeated freeze/thaws for all reagents. The GR Screening buffer 10× comprises 100 mM potassium phosphate, 200 mM sodium molybdate, 1 mM EDTA and 20% DMSO.
0% control was 100% DMSO and 100% control was […] Dexamethasone. Background solution (8 μL; assay buffer 10×, Stabilizing Peptide, DTT and ice cold MQ water) was added to the background wells. GS Red solution (7 μL; assay buffer 10×, Stabilizing Peptide, DTT, GS Red and ice cold water) was added to all wells except background wells. GR solution (7 μL; assay buffer 10×, Stabilizing Peptide, DTT, GR and ice cold water) was added to all wells. The plate was sealed and incubated in a dark at r.t. for 2 h.

Row | Structure (SMILES) | IC50 [nM]
1 | C[C@H](NC(=O)C(Cl)(Cl)Cl)[C@H](Oc1ccc2c(cnn2-c2ccc(F)cc2)c1)c1ccccc1 [Example 40, 2,2,2-Trichloro-N-[(1R,2S)-1-[1-(4-fluorophenyl)indazol-5-yl]oxy-1-phenyl-propan-2-yl]acetamide] | 3.4
2 | C[C@H](NC(=O)C(F)(F)F)[C@H](Oc1ccc2c(cnn2-c2ccc(F)cc2)c1)c1ccc(Cl)cc1 [Example 160, N-[(1R,2S)-1-(4-chlorophenyl)-1-[1-(4-fluorophenyl)indazol-5-yl]oxy-propan-2-yl]-2,2,2-trifluoro-acetamide] | 4.1
3 | COc1cccc([C@@H](Oc2ccc3c(cnn3-c3ccc(F)cc3)c2)[C@H](C)NC(=O)c2nc(C)cs2)c1 [Example 290, N-[(1R,2S)-1-[1-(4-fluorophenyl)indazol-5-yl]oxy-1-(3-methoxyphenyl)propan-2-yl]-4-methyl-1,3-thiazole-2-carboxamide] | 3.1
4 | C[C@H](NC(=O)C(C)(F)F)[C@H](Oc1ccc2c(cnn2-c2ccc(F)cc2)c1)c1ccc(Cl)cc1 [Example 237, N-[(1R,2S)-1-(4-chlorophenyl)-1-[1-(4-fluorophenyl)indazol-5-yl]oxy-propan-2-yl]-2,2-difluoro-propanamide] | 8.4
5 | C[C@H](NC(=O)C(F)(F)F)[C@H](Oc1ccc2c(cnn2-c2ccc(Cl)nn2)c1)c1ccccc1 [Example 119, N-{2-[1-(6-Chloro-pyridazin-3-yl)-1H-indazol-5-yloxy]-1-methyl-2-phenyl-ethyl}-2,2,2-trifluoro-acetamide] | 3.1
6 | Cc1ccc(F)cc1[C@@H](Oc1ccc2c(cnn2-c2ccc(F)cc2)c1)[C@H](C)NC(=O)C(C)(C)C [Example 180, N-[(1R,2S)-1-(5-fluoro-2-methyl-phenyl)-1-[1-(4-fluorophenyl)indazol-5-yl]oxy-propan-2-yl]-2,2-dimethyl-propanamide] | 6.8
7 | C[C@@H](NC(=O)C(F)(F)F)[C@H](COc1ccccc1)Oc1ccc2c(cnn2-c2ccc(F)cc2)c1 (single isomer, unassigned) [Example 69, 2,2,2-trifluoro-N-[2R*,3R*-3-[1-(4-fluorophenyl)indazol-5-yl]oxy-4-phenoxy-butan-2-yl]acetamide] | 76
8 | Cc1cc2c(cnn2-c2ccc(F)cc2)cc1O[C@H](c1ccccc1)[C@H](C)NC(=O)C(F)(F)F [Example 62, 2,2,2-Trifluoro-N-[(1R,2S)-1-[1-(4-fluorophenyl)-6-methyl-indazol-5-yl]oxy-1-phenyl-propan-2-yl]acetamide] | 3.5
9 | C[C@H](NC(=O)C1(C)CC1)[C@H](Oc1ccc2c(cnn2-c2ccc(F)cc2)c1)c1ccc(F)c(F)c1 [Example 212, N-[(1R,2S)-1-(3,4-difluorophenyl)-1-[1-(4-fluorophenyl)indazol-5-yl]oxy-propan-2-yl]-1-methyl-cyclopropane-1-carboxamide] | 5.2
10 | Cc1cccc([C@@H](Oc2ccc3c(cnn3-c3ccc(F)cc3)c2)[C@H](C)NC(=O)C2(C)CC2)c1 [Example 225, N-[(1R,2S)-1-[1-(4-fluorophenyl)indazol-5-yl]oxy-1-(3-methylphenyl)propan-2-yl]-1-methyl-cyclopropane-1-carboxamide] | 4.8
11 | Cc1ccc([C@@H](Oc2ccc3c(cnn3-c3ccc(F)cc3)c2)[C@H](C)NC(=O)C(C)(C)F)cc1F [Example 242, 2-fluoro-N-[(1R,2S)-1-(3-fluoro-4-methyl-phenyl)-1-[1-(4-fluorophenyl)indazol-5-yl]oxy-propan-2-yl]-2-methyl-propanamide] | 5.5
12 | COc1cccc([C@@H](Oc2ccc3c(cnn3-c3ccc(F)cc3)c2)[C@H](C)NC(=O)c2ccc(C(F)(F)F)cc2)c1 [Example 83, N-((1R,2S)-1-(1-(4-fluorophenyl)-1H-indazol-5-yloxy)-1-(3-methoxyphenyl)propan-2-yl)-4-(trifluoromethyl)benzamide] | 5.8
13 | Cc1ccc([C@@H](Oc2ccc3c(cnn3-c3ccc(F)cc3)c2)[C@H](C)NC(=O)C(C)(C)F)c(C)c1 [Example 245, N-[(1R,2S)-1-(2,4-dimethylphenyl)-1-[1-(4-fluorophenyl)indazol-5-yl]oxy-propan-2-yl]-2-fluoro-2-methyl-propanamide] | 5.5
14 | COc1ccc(F)cc1[C@@H](Oc1ccc2c(cnn2-c2ccc(F)cc2)c1)[C@H](C)NC(=O)C(C)(C)F [Example 250, 2-fluoro-N-[(1R,2S)-1-(5-fluoro-2-methoxy-phenyl)-1-[1-(4-fluorophenyl)indazol-5-yl]oxy-propan-2-yl]-2-methyl-propanamide] | 6.9
15 | C[C@H](NC(=O)C(C)(C)CO)[C@H](Oc1ccc2c(cnn2-c2ccc(F)cc2)c1)c1ccc(F)c(F)c1 [Example 251, N-[(1R,2S)-1-(3,4-difluorophenyl)-1-[1-(4-fluorophenyl)indazol-5-yl]oxy-propan-2-yl]-3-hydroxy-2,2-dimethyl-propanamide] | 5.3
16 | COc1ccc([C@@H](Oc2ccc3c(cnn3-c3ccc(F)cc3)c2)[C@H](C)NC(=O)C(F)(F)F)cc1F [Example 264, 2,2,2-trifluoro-N-[(1R,2S)-1-(3-fluoro-4-methoxy-phenyl)-1-[1-(4-fluorophenyl)indazol-5-yl]oxy-propan-2-yl]acetamide] | 6.5
17 | C[C@H](NC(=O)C(C)(C)CO)[C@H](Oc1ccc2c(cnn2-c2ccc(F)cc2)c1)c1cccc(F)c1 [Example 253, N-[(1R,2S)-1-(3-fluorophenyl)-1-[1-(4-fluorophenyl)indazol-5-yl]oxy-propan-2-yl]-3-hydroxy-2,2-dimethyl-propanamide] | 7.5
18 | Cc1ccc(F)cc1[C@@H](Oc1ccc2c(cnn2-c2ccc(F)cc2)c1)[C@H](C)NC(=O)C(C)(F)F [Example 234, 2,2-difluoro-N-[(1R,2S)-1-(5-fluoro-2-methyl-phenyl)-1-[1-(4-fluorophenyl)indazol-5-yl]oxy-propan-2-yl]propanamide] | 6.4
19 | Cc1cc(Cl)ccc1[C@@H](Oc1ccc2c(cnn2-c2ccc(F)cc2)c1)[C@H](C)NC(=O)C(F)(F)F [Example 169, N-[(1R,2S)-1-(4-chloro-2-methyl-phenyl)-1-[1-(4-fluorophenyl)indazol-5-yl]oxy-propan-2-yl]-2,2,2-trifluoro-acetamide] | 8.1
20 | C[C@H](NC(=O)C1(C)CC1)[C@H](Oc1ccc2c(cnn2-c2ccc(F)cc2)c1)c1ccc2c(c1)OCCO2 [Example 124, N-((1R,2S)-1-(2,3-dihydrobenzo[b][1,4]dioxin-6-yl)-1-(1-(4-fluorophenyl)-1H-indazol-5-yloxy)propan-2-yl)-1-methylcyclopropanecarboxamide] | 2.7
21 | COc1cccc([C@@H](Oc2ccc3c(cnn3-c3ccc(F)cc3)c2)[C@H](C)NC(=O)c2nc[nH]n2)c1 [Example 281, N-[(1R,2S)-1-[1-(4-fluorophenyl)indazol-5-yl]oxy-1-(3-methoxyphenyl)propan-2-yl]-1H-1,2,4-triazole-3-carboxamide] | 3.8
22 | COc1cccc([C@@H](Oc2ccc3c(cnn3-c3ccc(F)cc3)c2)[C@H](C)NC(=O)c2cc(C#N)cs2)c1 [Example 275, 4-cyano-N-[(1R,2S)-1-[1-(4-fluorophenyl)indazol-5-yl]oxy-1-(3-methoxyphenyl)propan-2-yl]thiophene-2-carboxamide] | 4
23 | Cc1cnc(C(=O)N[C@@H](C)[C@H](Oc2ccc3c(cnn3-c3ccc(F)cc3)c2)c2ccc(F)c(F)c2)s1 [Example 193, N-[(1R,2S)-1-(3,4-difluorophenyl)-1-[1-(4-fluorophenyl)indazol-5-yl]oxy-propan-2-yl]-5-methyl-1,3-thiazole-2-carboxamide] | 6.5
24 | COc1ccc([C@@H](Oc2ccc3c(cnn3-c3ccc(F)cc3)c2)[C@H](C)NC(=O)C(C)(C)F)cc1F [Example 246, 2-fluoro-N-[(1R,2S)-1-(3-fluoro-4-methoxy-phenyl)-1-[1-(4-fluorophenyl)indazol-5-yl]oxy-propan-2-yl]-2-methyl-propanamide] | 6
25 | COc1cccc([C@@H](Oc2ccc3c(cnn3-c3ccc(F)cc3)c2)[C@H](C)NC(=O)C2CCCC2)c1 [Example 56, N-[(1R,2S)-1-[1-(4-fluorophenyl)indazol-5-yl]oxy-1-(3-methoxyphenyl)propan-2-yl]cyclopentanecarboxamide] | 4.4
